A short description of data set [1]: Storage stability of dioxetane formulations measured by chemiluminescent enzyme assay. The data set is classed as physicochemical. The conditions noted are these: for % of Dioxetane Remaining: 0.5 mM dioxetane formulation pH 10, temperature not given (FIG. 5: 25° C.). An excerpt: Storage stability is related to the rate of decomposition of the dioxetane due to spontaneous reaction and is an intrinsic property. Decomposition of triggerable dioxetanes can also be induced by the presence of trace quantities of agents which catalyze the removal of a protecting group and thus initiate the decomposition. Storage stability of a dioxetane can be assessed by measuring the quantity of dioxetane present in a known sample at periodic intervals. The measurement can take any form known which measures a property relatable to the quantity of dioxetane. Techniques such as spectrophotometry, NMR spectrometry and the like are exemplary. A convenient means is to measure the amount of light produced by reacting a known quantity of dioxetane with a triggering agent under a standard set of conditions. A decrease in the amount or intensity of light emitted signals a loss of dioxetane compound.
A fluoro-substituted analog of dioxetane 1, identified as 3, a chloro-substituted analog 4 and a methyl-substituted analog 5 have been prepared and their storage stability evaluated over several weeks. Storage stability of a solution of 1 was measured for comparison. All solutions were prepared with the same composition, differing only in the identity of the dioxetane. Stability was evaluated by chemiluminescent enzyme assay with a fixed volume of test solution and fixed limiting amount of alkaline phosphatase and measuring the plateau light intensity at 25° C.
Formulations comprising 0.1 mg/mL Enhancer A, 0.88 mM Mg^+2 , 0.2 M 2-amino-2-methyl-1-propanol, pH 10, 0.1% Triton X-100 and 0.5 mM dioxetane 1, 3, 4 and 5, respectively, were prepared and stored in opaque polyethylene bottles at 4° C., 25° C. and 40° C. Twenty four 100 μL aliquots from each bottle were pipetted into the wells of a 96 well plate and the solutions incubated at 37° C. Into each well 10 μL solutions containing 8×10^−17 moles of AP were injected and light intensity integrated over five hours. Data are the average of all 24 wells. The experiment was repeated at the indicated time intervals for each dioxetane. The results in FIG. 5 show the comparative stability of the three formulations at 25° C.

The nature of data set [2]: Reagent carryover in capsule chemistry analysis system (TECHNICON IMMUNO 1 TSH method, luminescence detection). The conditions noted are these: R3 reagent with 0.2 mM CSPD; 3 mM pyranine omitted from test N only. As to the method:
The experiments described below were performed on a prototype capsule chemistry analysis system essentially as described by Kumar et al in U.S. Pat. No. 5,399,497, with the detection system configured to measure light emission (luminescence). The method and apparatus comprises feeding a stream of fluid segments through a Teflon tube, where the tube has an isolating layer of fluorocarbon oil on the inner surface. Sample and reagents are aspirated into this tube, and the resulting liquid segments are moved through the tube. […] The detection system was comprised of a photon counter and a fiber optic read head, in which the fibers were radially arranged around the Teflon tube to maximize the efficiency of light collection.
The TECHNICON IMMUNO 1® TSH method (Bayer Corporation, Tarrytown, N.Y., USA) was used as a representative immunoassay method for the testing of luminogenic reagents. […] The particles were then exposed to the luminogenic reagent, which contained a substrate for ALP, and luminescence was measured.
R1 (10.4 μl of serum-based solution containing fluorescein-labeled antibody to TSH), R2 (10.4 μl of serum-based solution containing antibody to TSH conjugated with ALP) and S (7.2 μl of serum sample) were aspirated into the second segment. […] The fifth segment was R3, of the composition described above, with the key elements being the luminogenic substrate and the luminescence enhancer. […]

Data set [3] in a line: Enhancement of luminescent signal of a reagent based on dioxetane 1 by enhancers and fluorescers. The conditions noted are these: for Enhancement Factor: 1 mg/mL Enhancer A; for Factor of increase of luminescent signal: reagent based on dioxetane 1. An excerpt: As part of the optimization of a reagent based on dioxetane 1, a number of enhancer materials was examined. At pH 9.6, Enhancer A (1-trioctylphosphoniummethyl-4-tributylphosphoniummethylbenzene dichloride) increased the luminescent signal by a factor of 6.2, and Enhancer B (poly(vinylbenzyltributylphosphonium chloride)) increased the signal by a factor of 19.7. At pH 10.0, Enhancer A increased the signal by a factor of 4.8, and Enhancer B increased the signal by a factor of 18.9.
Tables 2 and 3 show the extent of enhancement by pyranine and fluorescein, respectively, in the presence of 1 mg/mL of Enhancer A.

Data set [4] concerns alkaline phosphatase. The data set can be described thus: Performance of detection reagent in assays for AP in the capsule chemistry test system. It is filed as biochemical. The conditions noted are these: fluorescein-labeled alkaline phosphatase conjugate captured onto magnetic particles. As to the method: The experiments described below were performed on a prototype capsule chemistry analysis system essentially as described by Kumar et al in U.S. Pat. No. 5,399,497, with the detection system configured to measure light emission (luminescence). The method and apparatus comprises feeding a stream of fluid segments through a Teflon tube, where the tube has an isolating layer of fluorocarbon oil on the inner surface. Sample and reagents are aspirated into this tube, and the resulting liquid segments are moved through the tube. Separation steps and washing steps which are required by heterogeneous immunoassay methods were facilitated by means of magnets, which transferred magnetic particles from one aqueous segment to another. The detection system was comprised of a photon counter and a fiber optic read head, in which the fibers were radially arranged around the Teflon tube to maximize the efficiency of light collection.
A detection reagent incorporating dioxetane 3 was evaluated in a test system as described in Example 7. The test material was a fluorescein-labeled alkaline phosphatase conjugate which was captured onto the magnetic particles.

Setting [5] is: aqueous solutions, 25° C., four weeks.

Read-outs that look alike come from different tables or passages of the source.

As for “[4-(3,3-biscarboxy)-3-chloropropoxy)-4-(3-phosphoryloxyphenyl)]spiro[1,2-dioxetane-3,2′-tricyclo [3.3.1.1^3,7]decane], tetrasodium salt [Dioxetane 4]”, the “Storage stability compared with other dioxetanes (in words)” value in data set [1] was “worse than that of 1”.

Regarding `O=S(=O)([O-])c1cc(O)c2ccc3c(S(=O)(=O)[O-])cc(S(=O)(=O)[O-])c4ccc1c2c34.[Na+].[Na+].[Na+]` [Pyranine], the “Factor by which signal in test N was lower when the fluorescent enhancer was omitted” value in data set [2] was “approximately 10”. Also, the “Enhancement Factor” value in data set [3] (0.01 mM fluorescer) was determined as 3.7; in data set [3] (0.02 mM fluorescer) it was 7.3; in data set [3] (0.03 mM fluorescer), 9.8; in data set [3] (0.04 mM fluorescer) it was 12.2; in data set [3] (0.05 mM fluorescer), 13.7. In data set [3] (fluorescer 3 mM, without Enhancer A), the “Enhancement by fluorescer alone” value is recorded as “about ten-fold”.

For “[4-(3,3-biscarboxy)-3-fluoropropoxy)-4-(3-phosphoryloxyphenyl)]spiro[1,2-dioxetane-3,2′-tricyclo [3.3.1.1^3,7]decane], tetrasodium salt [Dioxetane 3]”, the “Decomposition on storage (in words)” value in data set [1] (setting [5]) is listed as “essentially no decomposition”. Besides, the “Assay performance (sensitivity, dynamic range, precision) in words” value in data set [4] is “sensitivity, dynamic range and precision comparable to the results using dioxetane 1”.

Consider `O=C([O-])C(CCOC1(c2cccc(OP(=O)([O-])[O-])c2)OOC12C1CC3CC(C1)CC2C3)C(=O)[O-].[Na+].[Na+].[Na+].[Na+]` (centres unmarked) [Dioxetane 1], for which the “% of Dioxetane Remaining” value in data set [1] (0 wks) is recorded as 100%; in data set [1] (1 wk) it was 94.8%; in data set [1] (2 wks), 91.1%; in data set [1] (3 wks) it was 87.5%; in data set [1] (4 wks), 84.1%; in data set [1] (5 wks), 81.8%. Further, the “% of Dioxetane Remaining” value worked out at 80.7% in data set [1] (6 wks) and 76.5% in data set [1] (9 wks). Moreover, the “Decomposition on storage (in words)” value in data set [1] (alkaline buffer, 25° C., two weeks) is recorded as “significant decomposition”. Besides, the “Storage stability compared with other dioxetanes (in words)” value in data set [1] (aqueous buffer solutions, 25° C.) is listed as “significantly less stable than a related compound, Lumigen PPD”.

For the molecule `CCCCCCCC[P+](CCCCCCCC)(CCCCCCCC)Cc1ccc(C[P+](CCCC)(CCCC)CCCC)cc1.[Cl-].[Cl-]` [Enhancer A, 1-trioctylphosphoniummethyl-4-tributylphosphoniummethylbenzene dichloride], the “Factor of increase of luminescent signal” value in data set [3] (pH 9.6) is 6.2; in data set [3] (pH 10.0), 4.8.

Take “[4-(3,3-biscarboxybutoxy)-4-(3-phosphoryloxyphenyl)]spiro[1,2-dioxetane-3,2′-tricyclo[3.3.1.1^3,7]-decane], tetrasodium salt [Dioxetane 5]”: in data set [1] (setting [5]), the “Decomposition on storage (in words)” value was “essentially no decomposition”.

For the origin of these results see patent US6410751B1, “Water soluble tri-substituted 1, 2-dioxetane compounds having increased storage stability, synthetic processes and intermediates” (Lumigen, Inc., priority 1995, dated 2002).
